# From article PMC7316778 (Nature Communications, 2020)
# “And” between values parts separate entries of the source, which are not always exact repeats. Equal entries are not always repeated. Where two headings read alike, the source gives them in different places.
# Tests used:
# TYRO3 (RSE) = target: T1, TYRO3 (RSE) (Homo sapiens, UniProt Q06418); test: SelectScreen kinase assay
# T1 sequence (Q06418 41-890): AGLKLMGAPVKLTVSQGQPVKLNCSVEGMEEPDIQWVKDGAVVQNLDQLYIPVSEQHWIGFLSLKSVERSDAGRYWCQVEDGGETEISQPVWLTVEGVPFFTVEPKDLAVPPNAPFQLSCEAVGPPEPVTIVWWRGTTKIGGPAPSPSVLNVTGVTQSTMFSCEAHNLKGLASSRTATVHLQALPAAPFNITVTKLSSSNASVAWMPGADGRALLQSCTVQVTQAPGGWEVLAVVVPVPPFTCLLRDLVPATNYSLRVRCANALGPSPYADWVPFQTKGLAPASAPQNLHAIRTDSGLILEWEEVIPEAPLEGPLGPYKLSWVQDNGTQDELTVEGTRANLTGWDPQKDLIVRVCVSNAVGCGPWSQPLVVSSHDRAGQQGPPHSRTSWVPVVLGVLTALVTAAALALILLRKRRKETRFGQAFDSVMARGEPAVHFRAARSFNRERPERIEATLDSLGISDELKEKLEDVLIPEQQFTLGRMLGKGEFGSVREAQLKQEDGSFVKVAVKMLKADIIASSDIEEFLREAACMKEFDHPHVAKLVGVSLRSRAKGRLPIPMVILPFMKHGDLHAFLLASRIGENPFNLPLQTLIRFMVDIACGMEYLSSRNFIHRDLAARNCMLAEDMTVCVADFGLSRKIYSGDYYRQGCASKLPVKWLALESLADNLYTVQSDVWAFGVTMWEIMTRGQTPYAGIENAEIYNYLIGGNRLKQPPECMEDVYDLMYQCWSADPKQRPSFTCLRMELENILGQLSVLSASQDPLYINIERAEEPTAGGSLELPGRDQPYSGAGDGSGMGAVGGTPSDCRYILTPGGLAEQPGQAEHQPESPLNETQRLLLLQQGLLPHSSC
# Description: (§1) Selectivity profiling assays were performed by the Invitrogen SelectScreen™ Services. […] The concentration of ATP was selected to be equal to the KM, unless indicated otherwise.
# TGFBR2 = TGFBR2 (Homo sapiens, UniProt P37173); test: SelectScreen kinase assay
# TGFBR2, sequence (P37173 23-567): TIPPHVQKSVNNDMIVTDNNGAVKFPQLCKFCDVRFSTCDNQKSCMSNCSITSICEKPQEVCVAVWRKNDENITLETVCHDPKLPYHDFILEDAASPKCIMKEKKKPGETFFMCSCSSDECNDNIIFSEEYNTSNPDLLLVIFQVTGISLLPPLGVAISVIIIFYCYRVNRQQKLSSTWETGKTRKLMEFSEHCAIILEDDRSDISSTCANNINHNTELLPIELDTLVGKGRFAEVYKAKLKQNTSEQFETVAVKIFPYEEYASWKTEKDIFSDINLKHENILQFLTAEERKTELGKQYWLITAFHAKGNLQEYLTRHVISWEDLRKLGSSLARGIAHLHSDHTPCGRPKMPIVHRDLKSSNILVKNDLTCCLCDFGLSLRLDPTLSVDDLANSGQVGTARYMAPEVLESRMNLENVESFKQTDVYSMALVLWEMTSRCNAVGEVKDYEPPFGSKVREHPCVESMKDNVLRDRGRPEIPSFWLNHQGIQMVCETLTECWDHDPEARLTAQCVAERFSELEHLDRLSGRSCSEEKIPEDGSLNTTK
# Description: as §1
# DYRK1A = DYRK1A (Homo sapiens, UniProt Q13627); test: SelectScreen kinase assay; conditions: for Inhibition at 1 µM (%): DYRK1A, ZLYTE, ATP Km app
# Description: as §1
# RPS6KA2 (RSK3) = RPS6KA2 (RSK3) (Homo sapiens, UniProt Q15349); test: SelectScreen kinase assay; conditions: 1 h, 1 μM WEL028, 1 h preincubation
# Description: as §1
# CDC7/DBF4 = CDC7/DBF4 (Homo sapiens, UniProt O00311); test: SelectScreen kinase assay
# CDC7/DBF4, sequence (O00311 whole entry): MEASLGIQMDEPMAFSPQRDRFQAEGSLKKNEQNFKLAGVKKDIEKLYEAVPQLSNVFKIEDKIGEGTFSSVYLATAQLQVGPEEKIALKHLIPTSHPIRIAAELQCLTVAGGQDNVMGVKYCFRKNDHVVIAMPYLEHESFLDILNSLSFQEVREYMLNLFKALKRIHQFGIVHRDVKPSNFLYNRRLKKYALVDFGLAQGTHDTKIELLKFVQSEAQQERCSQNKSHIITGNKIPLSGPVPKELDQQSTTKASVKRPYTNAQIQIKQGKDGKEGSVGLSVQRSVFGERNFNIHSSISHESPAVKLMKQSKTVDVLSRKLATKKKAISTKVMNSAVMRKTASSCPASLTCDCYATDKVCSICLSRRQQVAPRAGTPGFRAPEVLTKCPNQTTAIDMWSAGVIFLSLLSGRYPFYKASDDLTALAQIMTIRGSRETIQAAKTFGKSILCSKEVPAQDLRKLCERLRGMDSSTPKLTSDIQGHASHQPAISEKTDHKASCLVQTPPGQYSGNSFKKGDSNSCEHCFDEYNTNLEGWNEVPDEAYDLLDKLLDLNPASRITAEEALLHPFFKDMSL
# CDC7/DBF4, sequence (Q9UBU7 whole entry partner): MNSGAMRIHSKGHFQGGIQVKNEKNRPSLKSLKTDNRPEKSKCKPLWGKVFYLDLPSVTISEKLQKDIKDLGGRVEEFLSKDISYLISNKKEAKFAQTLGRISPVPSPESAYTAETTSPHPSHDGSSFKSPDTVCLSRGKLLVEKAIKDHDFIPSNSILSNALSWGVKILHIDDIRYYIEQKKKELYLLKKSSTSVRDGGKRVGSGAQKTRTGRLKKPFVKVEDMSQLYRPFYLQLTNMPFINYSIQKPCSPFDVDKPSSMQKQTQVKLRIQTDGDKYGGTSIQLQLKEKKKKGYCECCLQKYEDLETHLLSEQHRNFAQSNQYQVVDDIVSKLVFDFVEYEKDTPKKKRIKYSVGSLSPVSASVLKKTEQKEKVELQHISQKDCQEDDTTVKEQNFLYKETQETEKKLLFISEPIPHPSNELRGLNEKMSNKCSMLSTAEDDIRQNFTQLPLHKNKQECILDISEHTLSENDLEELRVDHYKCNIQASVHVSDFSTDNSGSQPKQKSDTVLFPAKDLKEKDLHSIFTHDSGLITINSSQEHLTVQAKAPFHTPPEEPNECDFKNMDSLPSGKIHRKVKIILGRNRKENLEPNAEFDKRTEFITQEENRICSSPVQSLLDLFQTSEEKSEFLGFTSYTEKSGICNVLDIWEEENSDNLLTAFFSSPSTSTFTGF
# Description: as §1
# TAOK2 (TAO1) = TAOK2 (TAO1) (Homo sapiens, UniProt Q9UL54); test: SelectScreen kinase assay
# TAOK2 (TAO1), sequence (Q9UL54 whole entry): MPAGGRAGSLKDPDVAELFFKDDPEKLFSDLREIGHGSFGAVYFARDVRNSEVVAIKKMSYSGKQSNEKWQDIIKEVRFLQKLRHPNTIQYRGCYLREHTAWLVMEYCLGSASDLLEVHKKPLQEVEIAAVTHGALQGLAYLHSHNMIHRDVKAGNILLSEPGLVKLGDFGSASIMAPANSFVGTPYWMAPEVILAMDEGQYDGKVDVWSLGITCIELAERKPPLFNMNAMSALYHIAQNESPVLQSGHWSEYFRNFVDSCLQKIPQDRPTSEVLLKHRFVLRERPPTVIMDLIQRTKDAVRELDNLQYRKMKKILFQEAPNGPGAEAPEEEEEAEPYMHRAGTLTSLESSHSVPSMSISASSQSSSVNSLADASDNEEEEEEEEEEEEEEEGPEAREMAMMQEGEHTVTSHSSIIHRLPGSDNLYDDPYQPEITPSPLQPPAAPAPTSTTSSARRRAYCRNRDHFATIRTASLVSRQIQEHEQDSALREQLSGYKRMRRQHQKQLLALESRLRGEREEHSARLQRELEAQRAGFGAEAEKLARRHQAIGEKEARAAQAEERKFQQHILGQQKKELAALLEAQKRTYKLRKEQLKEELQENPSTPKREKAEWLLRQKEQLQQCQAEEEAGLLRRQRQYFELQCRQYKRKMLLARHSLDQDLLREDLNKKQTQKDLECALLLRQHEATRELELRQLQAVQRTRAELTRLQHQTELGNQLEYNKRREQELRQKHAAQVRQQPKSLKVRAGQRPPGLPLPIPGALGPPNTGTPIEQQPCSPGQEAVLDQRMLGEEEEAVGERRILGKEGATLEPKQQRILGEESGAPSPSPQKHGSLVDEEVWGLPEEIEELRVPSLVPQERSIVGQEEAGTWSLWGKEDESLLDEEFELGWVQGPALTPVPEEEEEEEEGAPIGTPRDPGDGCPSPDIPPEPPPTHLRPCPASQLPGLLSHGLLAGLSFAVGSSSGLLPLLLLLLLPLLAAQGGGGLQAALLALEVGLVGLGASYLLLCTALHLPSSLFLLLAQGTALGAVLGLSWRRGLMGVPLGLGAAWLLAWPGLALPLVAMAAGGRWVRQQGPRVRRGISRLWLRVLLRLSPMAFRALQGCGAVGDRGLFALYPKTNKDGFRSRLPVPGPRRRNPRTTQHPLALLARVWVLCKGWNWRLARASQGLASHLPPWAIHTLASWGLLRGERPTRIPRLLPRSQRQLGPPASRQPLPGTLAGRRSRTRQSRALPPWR
# Description: as §1
# SPHK1 = SPHK1 (Homo sapiens, UniProt Q9NYA1); test: SelectScreen kinase assay
# SPHK1, sequence (Q9NYA1 whole entry): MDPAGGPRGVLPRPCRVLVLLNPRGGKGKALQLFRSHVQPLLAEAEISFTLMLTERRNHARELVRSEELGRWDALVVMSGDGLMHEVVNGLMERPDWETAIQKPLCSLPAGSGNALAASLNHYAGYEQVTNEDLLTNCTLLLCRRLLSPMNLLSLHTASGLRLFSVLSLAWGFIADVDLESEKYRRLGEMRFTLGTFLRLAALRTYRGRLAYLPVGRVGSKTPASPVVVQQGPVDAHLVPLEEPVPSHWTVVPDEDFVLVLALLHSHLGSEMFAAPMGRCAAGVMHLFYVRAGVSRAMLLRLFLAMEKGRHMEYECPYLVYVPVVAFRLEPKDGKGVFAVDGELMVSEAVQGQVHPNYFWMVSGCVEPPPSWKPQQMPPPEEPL
# Description: as §1
# TNK2 (ACK) [1] = test: SelectScreen kinase assay; conditions: IC50 on that kinase divided by IC50 on FES^S700C
# TNK2 (ACK) [2] = target: TNK2 (ACK) (Homo sapiens, UniProt Q07912); test: SelectScreen kinase assay
# TNK2 (ACK) (Homo sapiens, UniProt Q07912), sequence (Q07912 whole entry, species assumed): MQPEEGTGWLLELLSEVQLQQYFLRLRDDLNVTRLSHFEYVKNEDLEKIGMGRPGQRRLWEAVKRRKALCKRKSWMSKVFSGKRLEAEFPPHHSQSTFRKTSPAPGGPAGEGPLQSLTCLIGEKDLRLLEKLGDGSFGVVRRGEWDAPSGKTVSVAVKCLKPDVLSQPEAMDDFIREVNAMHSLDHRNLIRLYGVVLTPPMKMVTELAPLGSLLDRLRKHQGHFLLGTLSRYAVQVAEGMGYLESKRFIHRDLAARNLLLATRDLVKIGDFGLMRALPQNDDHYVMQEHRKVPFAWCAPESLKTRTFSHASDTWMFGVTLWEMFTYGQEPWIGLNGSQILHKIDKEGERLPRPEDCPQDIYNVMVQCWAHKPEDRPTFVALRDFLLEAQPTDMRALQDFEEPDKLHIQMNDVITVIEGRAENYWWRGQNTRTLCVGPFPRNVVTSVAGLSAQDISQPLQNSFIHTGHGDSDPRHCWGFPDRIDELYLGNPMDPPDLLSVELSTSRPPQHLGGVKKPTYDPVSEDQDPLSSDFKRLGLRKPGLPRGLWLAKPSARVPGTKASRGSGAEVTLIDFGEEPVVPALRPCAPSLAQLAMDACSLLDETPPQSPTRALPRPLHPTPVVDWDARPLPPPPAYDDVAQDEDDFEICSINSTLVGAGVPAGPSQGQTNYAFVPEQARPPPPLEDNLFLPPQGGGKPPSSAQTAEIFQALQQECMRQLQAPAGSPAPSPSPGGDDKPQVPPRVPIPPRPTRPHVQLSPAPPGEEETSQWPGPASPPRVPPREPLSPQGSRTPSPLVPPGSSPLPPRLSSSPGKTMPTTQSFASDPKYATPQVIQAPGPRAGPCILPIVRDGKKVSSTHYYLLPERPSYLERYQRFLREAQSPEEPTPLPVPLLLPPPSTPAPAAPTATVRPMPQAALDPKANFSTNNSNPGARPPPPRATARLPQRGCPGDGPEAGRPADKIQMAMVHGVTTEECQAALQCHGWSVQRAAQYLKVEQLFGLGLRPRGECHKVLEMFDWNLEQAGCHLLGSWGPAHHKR
# FES^WT = target: T2, FES^WT (Homo sapiens, UniProt P07332); test: PamChip microarray peptide phosphorylation; format: biochemical; conditions: Figure 7f, WT + WEL028, n 3
# T2 construct: human FES cDNA encoding residues 448–822 or human FER cDNA encoding residues 448–820 was amplified by PCR; made in house; host or cells: E. coli BL21(DE3), co-expressing YopH phosphatase
# T2 sequence (P07332 448-822): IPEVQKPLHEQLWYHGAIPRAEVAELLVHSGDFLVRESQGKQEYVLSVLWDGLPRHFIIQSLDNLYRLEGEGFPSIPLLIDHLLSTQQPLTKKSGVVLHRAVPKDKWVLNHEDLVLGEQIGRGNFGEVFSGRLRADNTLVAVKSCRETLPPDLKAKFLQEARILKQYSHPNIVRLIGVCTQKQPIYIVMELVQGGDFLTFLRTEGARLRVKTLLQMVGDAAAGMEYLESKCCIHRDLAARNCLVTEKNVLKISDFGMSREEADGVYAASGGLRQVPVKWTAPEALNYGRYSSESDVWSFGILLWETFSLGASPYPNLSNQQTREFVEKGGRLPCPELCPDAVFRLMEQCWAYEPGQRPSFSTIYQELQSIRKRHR
# [3] = 1 µM, ZLYTE, ATP Km app, listed as WEL028, 1 µM
# [4] = 1 h, 1 μM WEL028, 1 h preincubation
# [5] = 1 µM, LanthaScreen Binding, listed as WEL028, 1 µM
# [6] = read-out: Inhibition at 1 µM (%), 1 µM, LanthaScreen Binding
structure (smiles),measurement,setting,value
C#CCOc1ccc(Nc2ncc(Cl)c(Nc3ccccc3NC(=O)C=C)n2)c(OC)c1 [Compound 6],Inhibition at 1 µM (%),TYRO3 (RSE); [3],6%
same,inhibition at 1 µM,TYRO3 (RSE); [4],5%
same,inhibition at 1 µM,"TYRO3 (RSE); read-out: Inhibition at 1 µM (%), 1 µM, ZLYTE, ATP Km app",4%
same,Inhibition at 1 µM (%),TGFBR2; [5],11%
same,inhibition at 1 µM,TGFBR2; [4],14%
same,inhibition at 1 µM,TGFBR2; [6],17%
same,inhibition at 1 µM,DYRK1A; [4],1%
same,Inhibition at 1 µM (%),DYRK1A,3%
same,Inhibition at 1 µM (%),"DYRK1A; listed as WEL028, 1 µM",0%
same,inhibition at 1 µM,RPS6KA2 (RSK3),19%
same,inhibition at 1 µM,CDC7/DBF4; [4],3%
same,Inhibition at 1 µM (%),"CDC7/DBF4; CDC7/DBF4, 1 µM, LanthaScreen Binding, listed as WEL028, 1 µM",6% and 1%
same,Inhibition at 1 µM (%),TAOK2 (TAO1); [3],-1% and 9%
same,inhibition at 1 µM,TAOK2 (TAO1); [4],4%
same,Inhibition at 1 µM (%),"SPHK1; 1 µM, Adapta, ATP Km app, listed as WEL028, 1 µM",4% and 1%
same,inhibition at 1 µM,SPHK1; [4],2%
same,Apparent fold selectivity,TNK2 (ACK) [1],76 fold
same,IC50,TNK2 (ACK) [2],316 nM
same,Inhibition at 1 µM (%),TNK2 (ACK) [2]; [5],72%
same,inhibition at 1 µM,TNK2 (ACK) [2]; [4],73%
same,inhibition at 10 µM,"TNK2 (ACK) [2]; 1 h, log[inhibitor] (M) -5.00, LanthaScreen Binding",46%
same,inhibition at 3.311 µM,"TNK2 (ACK) [2]; 1 h, log[inhibitor] (M) -5.48, LanthaScreen Binding",70%
same,inhibition at 1.122 µM,"TNK2 (ACK) [2]; 1 h, log[inhibitor] (M) -5.95, LanthaScreen Binding",77%
same,inhibition at 0.3715 µM,"TNK2 (ACK) [2]; 1 h, log[inhibitor] (M) -6.43, LanthaScreen Binding",48%
same,inhibition at 0.123 µM,"TNK2 (ACK) [2]; 1 h, log[inhibitor] (M) -6.91, LanthaScreen Binding",25%
same,inhibition at 0.04074 µM,"TNK2 (ACK) [2]; 1 h, log[inhibitor] (M) -7.39, LanthaScreen Binding",5%
same,inhibition at 1 µM,TNK2 (ACK) [2]; [6],74%
same,"Mean signal, time course",FES^WT; time 0 min,-37.0
same,"Mean signal, time course",FES^WT; time 5 min,24.0
same,"Mean signal, time course",FES^WT; time 10 min,80.0
same,"Mean signal, time course",FES^WT; time 15 min,138.0
same,"Mean signal, time course",FES^WT; time 20 min,193.0
same,"Mean signal, time course",FES^WT; time 25 min,246.0
same,"Mean signal, time course",FES^WT; time 30 min,301.0
same,"Mean signal, time course",FES^WT; time 35 min,361.0
same,"Mean signal, time course",FES^WT; time 40 min,414.0
same,"Mean signal, time course",FES^WT; time 45 min,472.0
same,"Mean signal, time course",FES^WT; time 50 min,524.0
same,"Mean signal, time course",FES^WT; time 55 min,585.0
same,"Mean signal, time course",FES^WT; time 60 min,641.0
